# Columns and labels:
# MAGL [1] = target: T1, MAGL (Homo sapiens, UniProt Q99685); experiment: MAGL-inhibition assay (4-NPA substrate, absorbance 405 nm); format: biochemical; details: for MAGL/FAAH selectivity: ratio of FAAH IC50 to MAGL IC50 (fold)
# T1 construct: purchased Cayman Chemical
# T1 sequence (Q99685 1-303): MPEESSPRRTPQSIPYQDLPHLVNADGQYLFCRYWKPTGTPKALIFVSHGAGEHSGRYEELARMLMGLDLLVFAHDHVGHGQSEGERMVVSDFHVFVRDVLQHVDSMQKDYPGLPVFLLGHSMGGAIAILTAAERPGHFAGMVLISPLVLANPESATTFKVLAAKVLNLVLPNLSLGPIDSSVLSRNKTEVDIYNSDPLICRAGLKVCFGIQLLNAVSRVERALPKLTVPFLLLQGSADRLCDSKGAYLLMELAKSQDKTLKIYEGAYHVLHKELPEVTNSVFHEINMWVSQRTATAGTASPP
# Protocol: Human recombinant MAGL, and 4-nitrophenylacetate substrate (4-NPA) were from Cayman Chemical. The IC50 values for compounds were generated in 96-well microtiter plates. The MAGL reaction was conducted at RT at a final volume of 200 µL in 10 mM Tris buffer, pH 7.2, containing 1 mM EDTA. A total of 150 µL of 4-NPA 133.3 µM (final concentration = 100 µM) was added to 10 µL of DMSO containing the appropriate amount of compound. The reaction was initiated by the addition of 40 µL of MAGL (11 ng/well) in such a way that the assay was linear over 30 min. […] After the reaction had proceeded for 30 min, absorbance values were then measured by using a VictorX3 PerkinElmer instrument at 405 nm. Two reactions were also run: one reaction containing no compounds and the second one containing neither inhibitor nor enzyme. IC50 values were derived from experimental data using the Sigmoidal dose–response fitting of GraphPad Prism software as reported earlier.
# human FAAH = target: T2, human FAAH (Homo sapiens, UniProt O00519); experiment: FAAH inhibition assay (AMC arachidonoyl amide, fluorescence); format: biochemical; details: AMC arachidonoyl amide 10 µM, 30 min, RT
# T2 sequence (O00519 1-579): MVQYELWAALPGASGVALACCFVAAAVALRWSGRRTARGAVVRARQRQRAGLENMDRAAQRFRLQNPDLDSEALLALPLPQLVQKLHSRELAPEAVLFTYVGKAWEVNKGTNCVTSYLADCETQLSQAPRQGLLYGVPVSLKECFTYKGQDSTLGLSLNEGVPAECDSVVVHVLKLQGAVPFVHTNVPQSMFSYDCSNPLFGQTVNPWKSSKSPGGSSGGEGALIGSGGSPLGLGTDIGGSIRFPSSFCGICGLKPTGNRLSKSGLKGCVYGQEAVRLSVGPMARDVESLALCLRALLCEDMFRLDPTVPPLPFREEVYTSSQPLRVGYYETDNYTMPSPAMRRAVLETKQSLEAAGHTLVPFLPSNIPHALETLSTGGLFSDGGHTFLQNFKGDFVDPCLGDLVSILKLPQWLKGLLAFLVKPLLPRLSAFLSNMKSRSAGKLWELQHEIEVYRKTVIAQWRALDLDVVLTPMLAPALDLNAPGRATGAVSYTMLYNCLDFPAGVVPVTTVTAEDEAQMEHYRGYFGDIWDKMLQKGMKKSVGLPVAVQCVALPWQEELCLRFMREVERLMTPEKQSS
# Protocol: The IC50 values for compounds were generated in 96-well microtiter plates. The FAAH reaction was conducted at RT at a final volume of 200 µL in 125 mM Tris buffer, pH 9.0, containing 1 mM EDTA. A total of 150 µL of AMC arachidonoyl amide 13.3 µM (final concentration = 10 µM) was added to 10 µL of DMSO containing the appropriate amount of compound. The reaction was initiated by the addition of 40 µL of FAAH (0.9 µg/well) in such a way that the assay was linear over 30 min. After the reaction had proceeded for 30 min, fluorescence values were then measured by using a VictorX3 PerkinElmer instrument at an excitation wavelength of 340 nm and an emission of 460 nm. Two reactions were also run: one reaction containing no compounds and the second one containing neither inhibitor nor enzyme. IC50 values were derived from experimental data using the Sigmoidal dose − response fitting of GraphPad Prism software as reported earlier. To remove possible false-positive results, for each compound concentration, a blank analysis was carried out, and the final fluorescence results were obtained detracting the fluorescence produced by the presence of all the components except FAAH in the same conditions.
# MAGL [2] = target: T1, MAGL; experiment: MAGL preincubation assay; format: biochemical; details: preincubation 0, 30 and 60 min with hMAGL
# Protocol: The MAGL reaction was conducted at RT at a final volume of 200 µL in 10 mM Tris buffer, pH 7.2, containing 1 mM EDTA. A total of 150 µL of MAGL (11 ng/well) was added to 10 µL of DMSO containing the appropriate amount of compound. After 0, 30, and 60 min of incubation time the reaction was initiated by the addition of 40 µL of 4-NPA 500 µM. The enzyme activity was then measured according to the procedure described above.
# MAGL [3] = target: T1, MAGL; experiment: MAGL dilution assay; format: biochemical; details: 10 µM incubated 60 min, then 40x dilution (final 0.25 µM)
# Protocol: The enzyme (880 ng in 75 µL of Tris buffer, pH 7.2) was incubated during 60 min at RT with 5 µL of compound 20b (concentration of 10 µM in the mixture) dissolved in DMSO. The MAGL-inhibitor mixture was then diluted 40-fold with the buffer. After 15 min of incubation, the reaction was initiated on a 160 µL aliquot by the addition of 40 µL of 4-NPA 500 µM and the enzyme activity was measured according to the procedure described above.
# OVCAR3 = experiment: Cell viability assay, OVCAR3; format: cell-based; details: OVCAR-3; OVCAR3 human ovarian cancer cells, 96 h
# Protocol: (§1) COV318, OVCAR-3 (from ATCC) and hMSC (from AB Cell-Bio) were maintained at 37 °C in a humidified atmosphere containing 5% CO2 accordingly to the supplier. Normal (1.5 × 10^4) and tumor (5 × 10^2) cells were plated in 96-well culture plates. The day after seeding, vehicle or compounds were added at different concentrations to the medium. Compound was added to the cell culture at a concentration ranging from 200 to 0.02 µM. Cell viability was measured after 96 h according to the supplier (Promega, G7571) with a Tecan F200 instrument. IC50 values were calculated from logistical dose–response curves. Averages were obtained from three independent experiments, and error bars are standard deviations (n = 3).
# CAOV3 = experiment: Cell viability assay, CAOV3; format: cell-based; details: Caov-3; CAOV3 human ovarian cancer cells, 96 h
# [4] = test system: noncancerous human mesenchymal stem cells (hMSC); experiment: Cell viability assay, hMSC; format: cell-based; details: 96 h
# Protocol: as §1
# [5] = test system: EAE mouse model of multiple sclerosis; set-up: method as in PMID 25298214; details: cited from earlier work
# [6] = human recombinant MAGL, 4-NPA 100 µM, 30 min, RT
smiles,measurement,setting,value
"CC1=N/C(=C\c2cc(-c3ccc(OC(F)(F)F)cc3)ccc2-c2ccc(OC(F)(F)F)cc2)C(=O)O1 [Compound 20c, (Z)-4-{[4,4′′-Bis(trifluoromethoxy)-(1,1′:4′,1′′-terphenyl)-2′-yl]methylene}-2-methyloxazol-5(4H)-one]",IC50,MAGL [1]; approximate values,4 to 6 µM
same,IC50,MAGL [1]; [6],4.19 ± 0.299 µM
same,MAGL/FAAH selectivity,MAGL [1],4
same,IC50,human FAAH,17.7 ± 1.2 µM
"CC1=N/C(=C\c2cc(-c3ccc(F)cc3)ccc2-c2ccc(F)cc2)C(=O)O1 [Compound 20a, (Z)-4-{[4,4′′-Difluoro-(1,1′:4′,1′′-terphenyl)-2′-yl]methylene}-2-methyloxazol-5(4H)-one]",IC50,MAGL [1]; [6],0.683 ± 0.05 µM
same,MAGL/FAAH selectivity,MAGL [1],41
same,IC50,human FAAH,28 ± 1.31 µM
"CC1=N/C(=C\c2cc(-c3cccc(F)c3)ccc2-c2cccc(F)c2)C(=O)O1 [Compound 20e, (Z)-4-{[3,3′′-Difluoro-(1,1′:4′,1′′-terphenyl)-2′-yl]methylene}-2-methyloxazol-5(4H)-one]",IC50,MAGL [1]; [6],0.628 ± 0.032 µM
same,MAGL/FAAH selectivity,MAGL [1],19
same,IC50,human FAAH,11.7 ± 0.895 µM
"CC1=N/C(=C\c2cc(-c3ccc4c(c3)OCO4)ccc2-c2ccc3c(c2)OCO3)C(=O)O1 [Compound 20f, (Z)-4–[2,5-Bis(benzo[d][1,3]dioxol-5-yl)benzylidene]-2-methyloxazol-5(4H)-one]",IC50,MAGL [1]; [6],0.673 ± 0.023 µM
same,MAGL/FAAH selectivity,MAGL [1],35
same,IC50,human FAAH,23.7 ± 1.35 µM
"CC1=N/C(=C\c2ccc(-c3ccccc3)cc2-c2ccccc2)C(=O)O1 [Compound 7, (Z)-4-[(1,1′:3′,1′′-Terphenyl)-4′-ylmethylene]-2-methyloxazol-5(4H)-one]",IC50,MAGL [1]; [6],0.546 ± 0.02 µM
same,MAGL/FAAH selectivity,MAGL [1],33
same,IC50,human FAAH,18.2 ± 0.904 µM
"COc1ccc(-c2ccc(-c3ccc(OC)c(F)c3)c(/C=C3\N=C(C)OC3=O)c2)cc1F [Compound 20g, (Z)-4-{[3,3′′-Difluoro-4,4′′-dimethoxy-(1,1′:4′,1′′-terphenyl)-2′-yl]methylene}-2-methyloxazol-5(4H)-one]",IC50,MAGL [1]; [6],0.335 ± 0.002 µM
same,MAGL/FAAH selectivity,MAGL [1],67
same,IC50,human FAAH,22.3 ± 1.24 µM
"CC1=N/C(=C\c2cc(-c3ccccc3)ccc2-c2ccccc2)C(=O)O1 [Compound 15, (Z)-4-[(1,1′:4′,1′′-Terphenyl)-2′-ylmethylene]-2-methyloxazol-5(4H)-one]",IC50,MAGL [1]; [6],0.32 ± 0.01 µM
same,MAGL/FAAH selectivity,MAGL [1],34
same,IC50,human FAAH,10.9 ± 0.161 µM
"CC1=N/C(=C\c2ccc(-c3ccccc3)c(-c3ccccc3)c2)C(=O)O1 [Compound 5, (Z)-4-[(1,1′:2′,1′′-Terphenyl)-4′-ylmethylene]-2-methyloxazol-5(4H)-one]",IC50,MAGL [1]; [6],0.837 ± 0.018 µM
same,MAGL/FAAH selectivity,MAGL [1],3
same,IC50,human FAAH,2.32 ± 0.051 µM
"CC1=N/C(=C\c2cccc(-c3ccccc3)c2-c2ccccc2)C(=O)O1 [Compound 9, (Z)-4-[(1,1′:2′,1′′-Terphenyl)-3′-ylmethylene]-2-methyloxazol-5(4H)-one]",IC50,MAGL [1]; [6],2.56 ± 0.172 µM
same,MAGL/FAAH selectivity,MAGL [1],8
same,IC50,human FAAH,20.1 ± 1.44 µM
"O=C(Oc1ccc([N+](=O)[O-])cc1)N1CCC(C(O)(c2ccc3c(c2)OCO3)c2ccc3c(c2)OCO3)CC1 [JZL-184, reference compound]",IC50,human FAAH,3.3 ± 0.205 µM
"CC1=N/C(=C\c2cc(-c3ccccc3)cc(-c3ccccc3)c2)C(=O)O1 [Compound 13, (Z)-4-[(1,1′:3′,1′′-Terphenyl)-5′-ylmethylene]-2-methyloxazol-5(4H)-one]",IC50,MAGL [1]; [6],0.457 ± 0.01 µM
same,MAGL/FAAH selectivity,MAGL [1],32
same,IC50,human FAAH,14.8 ± 1.18 µM
"COc1nn(-c2ccc(NC(=O)OCc3ccccc3)c(C)c2)c(=O)o1 [CAY10499, reference compound]",IC50,MAGL [1]; [6],0.144 ± 0.004 µM
same,MAGL/FAAH selectivity,MAGL [1],0.1
same,IC50,human FAAH,0.0147 ± 0.0002 µM
"COc1ccc(-c2ccc(-c3ccc(OC)cc3)c(/C=C3\N=C(C)OC3=O)c2)cc1 [Compound 20b, (Z)-4-{[4,4′′-Dimethoxy-(1,1′:4′,1′′-terphenyl)-2′-yl]methylene}-2-methyloxazol-5(4H)-one]",IC50,MAGL [1]; [6],0.348 ± 0.038 µM
same,MAGL/FAAH selectivity,MAGL [1],104
same,IC50,human FAAH,36.1 ± 1.12 µM
same,Change of MAGL blocking ability (IC50) with preincubation time,MAGL [2],did not show any significant increase
same,Inhibition mechanism in dilution assay,MAGL [3],reversible inhibition
same,IC50,OVCAR3,41.6 µM
same,IC50,CAOV3,23.8 µM
same,IC50,[4],> 100 µM
"CC1=N/C(=C\c2cc(-c3ccc(Cl)cc3)ccc2-c2ccc(Cl)cc2)C(=O)O1 [Compound 20h, (Z)-4-{[4,4′′-Dichloro-(1,1′:4′,1′′-terphenyl)-2′-yl]methylene}-2-methyloxazol-5(4H)-one]",IC50,MAGL [1]; [6],0.476 ± 0.039 µM
same,MAGL/FAAH selectivity,MAGL [1],24
same,IC50,human FAAH,11.5 ± 0.998 µM
O=C(CCCCCc1ccc(-c2ccccc2)cc1)OCc1ccc2c(c1)OCO2 [c21],Catalepsy or other motor impairments,[5]; mouse,not accompanied by catalepsy or other motor impairments
same,Effect on clinical progression in EAE mouse model,[5]; multiple sclerosis mouse model,ameliorated the clinical progression
"CC1=N/C(=C\c2cc(-c3ccc(C(F)(F)F)cc3)ccc2-c2ccc(C(F)(F)F)cc2)C(=O)O1 [Compound 20d, (Z)-4-{[4,4′′-Bis(trifluoromethyl)-(1,1′:4′,1′′-terphenyl)-2′-yl]methylene}-2-methyloxazol-5(4H)-one]",IC50,MAGL [1]; approximate values,4 to 6 µM
same,IC50,MAGL [1]; [6],6.76 ± 1.13 µM
same,MAGL/FAAH selectivity,MAGL [1],4
same,IC50,human FAAH,29 ± 1.16 µM

# Reference: article PMC6009861, “Development of terphenyl-2-methyloxazol-5(4H)-one derivatives as selective reversible MAGL inhibitors” (Journal of Enzyme Inhibition and Medicinal Chemistry, 2017)
